# Molecular target: Sodium-dependent serotonin transporter (Rattus norvegicus, UniProt P31652)
# Experiment: Displacement of [3H]citalopram from Sprague-Dawley rat SERT
# Sodium-dependent serotonin transporter, sequence (P31652 whole entry): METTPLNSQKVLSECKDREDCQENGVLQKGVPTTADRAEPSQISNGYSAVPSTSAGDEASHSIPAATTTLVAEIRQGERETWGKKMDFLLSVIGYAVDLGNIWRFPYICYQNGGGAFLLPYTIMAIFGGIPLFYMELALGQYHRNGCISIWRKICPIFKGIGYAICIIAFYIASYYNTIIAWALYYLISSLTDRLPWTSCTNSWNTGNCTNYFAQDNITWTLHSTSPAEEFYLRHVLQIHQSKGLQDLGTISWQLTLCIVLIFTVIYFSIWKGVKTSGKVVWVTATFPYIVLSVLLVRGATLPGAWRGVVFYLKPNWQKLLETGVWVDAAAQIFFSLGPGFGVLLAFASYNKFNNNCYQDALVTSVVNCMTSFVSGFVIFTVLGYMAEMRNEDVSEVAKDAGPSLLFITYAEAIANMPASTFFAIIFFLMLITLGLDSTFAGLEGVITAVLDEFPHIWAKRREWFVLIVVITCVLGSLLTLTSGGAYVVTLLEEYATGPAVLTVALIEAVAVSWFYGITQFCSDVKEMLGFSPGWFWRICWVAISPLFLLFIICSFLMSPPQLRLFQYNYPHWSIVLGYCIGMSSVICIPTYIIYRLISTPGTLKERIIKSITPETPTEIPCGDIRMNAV
row,SMILES,Ki [nM]
1,CCOCC1CNCCN1c1ccc2cc([N+](=O)[O-])ccc2n1 (stereo unspecified),0.43
2,CCCOCC1CNCCN1c1ccc2cc([N+](=O)[O-])ccc2n1 (stereo unspecified),5.67
3,O=[N+]([O-])c1ccc2nc(N3CCNCC3CO)ccc2c1 (stereo unspecified),0.43
4,O=[N+]([O-])c1ccc2nc(N3CCNCC3)ccc2c1 [6-NITROQUIPAZINE],0.24
5,CCCCOCC1CNCCN1c1ccc2cc([N+](=O)[O-])ccc2n1 (stereo unspecified),15.4
6,COCC1CNCCN1c1ccc2cc([N+](=O)[O-])ccc2n1 (stereo unspecified),0.68
